Data as given in patent publication US10537561B2 (Novartis AG, priority 2011, dated 2020).
Values belong to the compound of their own block, whether it stands above or below them.

What was measured:
[1] = target: PDGFR-β (Homo sapiens, UniProt P09619); assay: PDGFR-β inhibition; type: biochemical; conditions: read-out: PDGFR-β IC-50
[2] = target: CSF-1R (Homo sapiens, UniProt P07333); assay: CSF-1R inhibition, biochemical assay
[3] = target: >200 miscellaneous kinases; assay: Kinase selectivity panel; type: biochemical; conditions: read-out: IC50 values for most of >200 miscellaneous kinases
[4] = system: several hundred kinases in the Ambit kinase array; assay: Ambit kinase array screen; type: binding; conditions: lower than 50% only against CSF-1R, PDGFRα and PDGFRβ
[5] = system: CSF-dependent cell proliferation; assay: CSF-dependent cell proliferation; type: cell-based; conditions: read-out: CSF-dependent cell proliferation IC-50
[6] = system: Bone marrow-derived macrophages (BMDMs); assay: BMDM proliferation/survival (MTT); type: cell-based, mouse
Method: (§1) Cell growth rate was determined using the MTT cell proliferation kit (Roche). […] Media was changed every 48 hours. BMDM and CRL-2467 cells were supplemented with 10 ng/ml and 30 ng/ml recombinant mouse CSF-1 respectively unless otherwise indicated. 10 μl of MTT labeling reagent was added to each well and then incubated for 4 hours at 37° C., followed by the addition of 100 μl MTT solubilization reagent overnight. The mixture was gently resuspended and absorbance was measured at 595 nm and 750 nm on a spectraMax 340pc plate reader (Molecular Devices).

[7] = system: mouse GBM cell cultures (GBM1-4); assay: Mouse glioma cell line proliferation (MTT); type: cell-based
Method: (§2) For neurosphere formation the cell pellet was resuspended in neurosphere media consisting of mouse NSC Basal Media, NSC proliferation supplements, 10 ng/ml EGF, 20 ng/ml basic-FGF and 1 mg/ml Heparin (Stem Cell Technologies). Fresh media was added every 72 hours for 2 weeks. Primary neurospheres were collected, mechanically disaggregated to a single cell suspension and propagated by serial passaging. To generate glioma cell lines, secondary neurospheres were dissociated to single cell suspensions and cultivated in DMEM+10% FBS as a monolayer. Multiple glioma cell lines were derived from independent mice, denoted GBM1-4 herein. Glioma cells were infected with a pBabe-H2B-mCherry construct as described previously (O. Florey, et al., Nat Cell Biol 13, 1335 (2011)).
as §1

[8] = system: neurospheres derived from mouse RCAS-PDGF-B-HA/Nestin-Tv-a; Ink4a/Arf−/− GBMs; assay: Secondary neurosphere formation assay; type: cell-based
Method: as §2
Media was changed every 48 hours. Secondary neurosphere formation was assayed by counting the number of neurospheres obtained after 2 weeks.

[9] = system: glioma in RCAS-PDGF-B-HA/Nestin-Tv-a; Ink4a/Arf−/− mice; assay: Long-term survival trial in glioma model; type: in vivo, mouse
[10] = system: glioma in RCAS-PDGF-B-HA/Nestin-Tv-a; Ink4a/Arf−/− mice; assay: Short-term trial, tumor volume by MRI; type: in vivo, mouse
Method: Tumor volume in the RCAS-PDGF-B-HA/Nestin-Tv-a; Ink4a/Arf^−/− mice was determined by MRI, and mice were added to the trial when this was at least 4.5 mm^3 or greater. […] MRI scans were performed on the day before treatment was initiated, at the mid-point of the treatment, and at the day before the end of the trial period.
The vehicle control, 20% captisol, was processed in the same manner.
To determine tumor volume, regions of interest (ROI) were circumscribed on T2 weighted images and their corresponding area in mm^2 was multiplied by the slice height of 0.7 mm. The total tumor volume is the sum of the ROI volume in each slice, and the volume for the first and last slice in which the tumor appear is halved to approximate the volume of a trapezoid. When tumor volume was in the range of 4.5-40 mm^3, animals were randomly assigned to treatment groups. […] A size-matched vehicle treated cohort was not included for this cohort having the larger starting tumor burden because these mice would not have been able to survive to the trial endpoint.

[11] = system: glioma in RCAS-PDGF-B-HA/Nestin-Tv-a; Ink4a/Arf−/− mice; assay: Histologic analyses of tumors from short-term trial; type: in vivo, mouse; conditions: for Apoptosis (% CC3+) / Macrophages (% CD68+) / Total DAPI+ Cells / Tumor Cells (% Olig2+) / Phagocytic Capacity / Vasculature (CD31 MVD): vs vehicle
Method: The analyses were performed on tissues from the short-term trial (see Example 5), so that tumors from the different treatment groups could be compared at the same defined endpoint. Tumor cell density was examined using the oligodendrocyte marker Olig2, which has previously been used to identify glioma cells. […] (FIG. 6A).
To isolate tissues for snap freezing in liquid nitrogen, mice were euthanized by carbon dioxide asphyxiation or fully anesthetized with avertin (2,2,2-tribromoethanol, Sigma) and cervically dislocated prior to tissue harvest. For flow cytometry, mice were fully anesthetized with avertin and transcardially perfused with 20 ml of PBS. The brain was then isolated and the tumor macrodissected from the surrounding normal tissue. For proliferation analysis, mice were injected intraperitoneally with […] of bromodeoxyuridine (BrdU; Sigma) 2 hours prior to sacrifice. To isolate tissues for frozen histology, mice were fully anesthetized with avertin, transcardially perfused with 10 ml of PBS, followed by 10 ml of 4% paraformaldehyde in PBS (PFA). The brain was postfixed in PFA overnight at 4° C. while other tissues were cryopreserved in 30% sucrose at 4° C. After post-fixation, the brain was then transferred to 30% sucrose and incubated at 4° C. until the brain was fully equilibrated and sank to the bottom of the tube (typically 2 to 3 days). All tissues were then embedded in OCT (Tissue-Tek) and 10 μm cryostat tissue sections were used for all subsequent analysis.
For immunofluorescence, 10 μm thick frozen sections were thawed and dried at room temperature and then washed in PBS. For the standard staining protocol, tissue sections were blocked in 0.5% PNB in PBS for at least 1 hour at room temperature or up to overnight at 4° C., followed by incubation in primary antibody in 0.25% PNB for 2 hours at room temperature or overnight at 4° C. Sections were then washed in PBS and incubated with the appropriate fluorophore-conjugated secondary antibody (Molecular Probes) at a dilution 1:500 in 0.25% PNB for 1 hour at room temperature. After washing in PBS, tissue sections were counterstained with DAPI (5 mg/ml stock diluted 1:5000 in PBS) for 5 minutes prior to mounting with ProLong Gold Antifade mounting media (Invitrogen).
For angiogenesis and proliferation analysis, tissue sections were first subjected to citrate buffer based antigen retrieval by submerging in antigen unmasking solution (0.94% v/v in distilled water; Vector Laboratories) and microwaving for 10 minutes on half power, followed by cooling to room temperature for at least 30 minutes. For angiogenesis analysis, tissues were then washed in PBS and blocked with mouse Ig blocking reagent (Vector Laboratories) according to the manufacturer's instructions for 1 hour at room temperature. For proliferation analysis, after antigen retrieval, tissue sections were incubated with 2M HCl for 15 minutes at room temperature to denature DNA and then in neutralizing 0.1M sodium borate buffer (pH 8.5) for 5 minutes. After PBS washes, the rest of the staining was performed according to the standard protocol.
For staining for phagocytosis analysis, 10 μm thick frozen sections were thawed and dried at room temperature and then washed in PBS. Tissue sections were blocked in 0.5% PNB in PBS for at least 1 hour at room temperature, followed by incubation in rabbit anti-cleaved caspase-3 primary antibody diluted 1:500 in 0.5% PNB overnight at 4° C. The next day, slides were washed 6 times for 5 minutes in PBS prior to incubation with goat-anti-rabbit Alexa568 secondary antibody (1:500 in 0.5% PNB) for 1 hour at room temperature. Tissue sections were then washed 6 times for 5 minutes in PBS and blocked overnight at 4° C. in a new buffer of 5% donkey serum, 3% bovine serum albumin, and 0.5% PNB in PBS. […]

Chain of CSF-1R (P07333 20-972, species assumed): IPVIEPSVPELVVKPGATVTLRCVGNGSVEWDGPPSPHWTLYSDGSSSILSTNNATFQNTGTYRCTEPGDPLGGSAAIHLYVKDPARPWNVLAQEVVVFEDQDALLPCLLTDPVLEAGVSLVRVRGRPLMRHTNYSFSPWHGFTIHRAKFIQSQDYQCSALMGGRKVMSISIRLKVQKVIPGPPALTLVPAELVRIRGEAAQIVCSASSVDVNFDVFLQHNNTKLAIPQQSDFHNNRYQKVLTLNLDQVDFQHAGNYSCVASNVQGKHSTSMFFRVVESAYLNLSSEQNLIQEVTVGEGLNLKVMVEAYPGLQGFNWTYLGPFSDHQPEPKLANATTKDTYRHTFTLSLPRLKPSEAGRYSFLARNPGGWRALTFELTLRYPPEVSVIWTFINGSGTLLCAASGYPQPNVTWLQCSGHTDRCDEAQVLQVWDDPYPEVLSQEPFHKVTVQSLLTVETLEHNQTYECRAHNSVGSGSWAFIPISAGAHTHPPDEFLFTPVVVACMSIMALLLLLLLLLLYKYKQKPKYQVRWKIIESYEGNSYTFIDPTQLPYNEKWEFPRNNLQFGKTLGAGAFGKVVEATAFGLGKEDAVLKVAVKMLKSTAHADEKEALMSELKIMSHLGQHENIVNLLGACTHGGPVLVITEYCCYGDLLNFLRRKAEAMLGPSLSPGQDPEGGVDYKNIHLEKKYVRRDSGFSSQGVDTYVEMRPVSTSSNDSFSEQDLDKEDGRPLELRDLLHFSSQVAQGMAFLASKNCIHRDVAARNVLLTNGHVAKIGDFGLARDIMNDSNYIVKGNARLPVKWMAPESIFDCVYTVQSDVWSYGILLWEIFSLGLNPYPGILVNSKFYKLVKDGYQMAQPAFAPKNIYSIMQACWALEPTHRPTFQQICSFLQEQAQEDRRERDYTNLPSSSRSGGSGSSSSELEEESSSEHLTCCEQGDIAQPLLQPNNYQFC
Chain of PDGFR-β (P09619 33-1106, species assumed): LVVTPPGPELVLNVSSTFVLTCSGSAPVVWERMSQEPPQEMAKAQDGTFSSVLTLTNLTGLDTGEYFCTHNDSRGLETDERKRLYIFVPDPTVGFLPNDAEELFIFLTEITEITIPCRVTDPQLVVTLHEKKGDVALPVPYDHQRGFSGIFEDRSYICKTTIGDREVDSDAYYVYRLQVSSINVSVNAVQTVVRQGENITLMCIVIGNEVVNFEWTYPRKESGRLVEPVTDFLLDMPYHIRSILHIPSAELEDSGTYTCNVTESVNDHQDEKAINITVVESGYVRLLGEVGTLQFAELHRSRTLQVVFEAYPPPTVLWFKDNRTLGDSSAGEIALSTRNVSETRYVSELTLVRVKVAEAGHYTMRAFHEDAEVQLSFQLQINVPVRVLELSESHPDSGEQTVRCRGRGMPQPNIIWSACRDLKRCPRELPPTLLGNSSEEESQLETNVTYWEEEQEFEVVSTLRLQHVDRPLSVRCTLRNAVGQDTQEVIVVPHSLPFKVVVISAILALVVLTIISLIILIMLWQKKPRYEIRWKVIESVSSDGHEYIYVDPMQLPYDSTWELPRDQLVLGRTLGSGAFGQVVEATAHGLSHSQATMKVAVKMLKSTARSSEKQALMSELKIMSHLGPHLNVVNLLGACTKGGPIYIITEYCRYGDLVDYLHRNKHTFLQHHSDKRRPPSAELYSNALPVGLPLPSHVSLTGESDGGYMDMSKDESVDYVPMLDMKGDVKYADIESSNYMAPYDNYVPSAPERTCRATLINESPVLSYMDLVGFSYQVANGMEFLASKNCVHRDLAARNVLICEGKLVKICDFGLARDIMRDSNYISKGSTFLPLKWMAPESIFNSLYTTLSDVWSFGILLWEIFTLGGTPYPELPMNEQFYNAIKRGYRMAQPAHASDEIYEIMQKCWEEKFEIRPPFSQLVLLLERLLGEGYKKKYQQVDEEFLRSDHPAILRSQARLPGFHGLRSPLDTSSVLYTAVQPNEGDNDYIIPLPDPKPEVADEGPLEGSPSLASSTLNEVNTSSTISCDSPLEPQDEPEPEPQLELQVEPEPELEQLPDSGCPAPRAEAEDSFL

- IC50 [1]: 7.7 µM
- IC50 [2]: 0.008 µM
SMILES: CCCNC(=O)c1cc(Oc2ccc3nc(N[C@@H]4CCCC[C@H]4O)sc3c2)ccn1

- IC50 [1]: 1.7 µM
- IC50 [2]: 0.003 µM
SMILES: CCn1cc(-c2cc(Oc3ccc4nc(N[C@@H]5CCCC[C@H]5O)sc4c3)ccn2)cn1

SMILES: CNC(=O)c1cc(Oc2ccc3nc(N[C@@H]4CCCC[C@H]4O)sc3c2)ccn1 [BLZ945]
- IC50 [3]: > 10 µM
- activity in Ambit kinase array [4]: lower than 50 % of control
- IC50 [5]: ~0.067 µM
- rate of population doubling of BMDM cells ([6]; 67 nM): same effect on this rate as absence of CSF-1 stimulation
- macrophage survival ([6]; 67 nM to 6700 nM, wild-type BMDMs): dramatically blocked macrophage survival
- effects on tumor cell lines established from secondary mouse GBM neurospheres [7]: no differences
- formation of secondary neurospheres [8]: not altered
- total number and size of neurospheres ([8]; 670 nM): unaffected
- treated cohort still alive (symptom-free survival) at trial endpoint ([9]; 200 mg/kg oral gavage daily, 26 weeks post-injection): 64.4%
- mice with grade II glioma among 4 treated mice sacrificed for histology ([9]; 12 weeks, of 4 mice): one
- tumor free mice among 4 treated mice sacrificed for histology ([9]; 12 weeks, of 4 mice): 3
- treated animals either Grade II or tumor free ([9]; long-term trial): 80%
- treated animals with Grade III tumor ([9]; long-term trial): 20%
- tumor malignancy vs vehicle ([9]; long-term trial): significantly less malignant tumors
- mice with no detectable lesions ([9]; mice alive at 26-week trial endpoint): 56%
- treated animals with reduced tumor size ([10]; 6 days of dosing): 7 of 11
- treated animals with tumor volume increases over 50% ([10]; 6 days, of 11 animals): two
- tumor size by MRI ([10]; 7 day trial): no increase in tumor size
- Tumor Volume (Day −1 vs Day 6) ([10]; BLZ945, Day 7, tumors 4.5-40 mm^3): +0.68%
- treated mice with reduction of at least 30% in tumor size ([10]; large tumor cohort 48.7 to 132 mm^3, 6 days): 6 of 18
- tumor volume change ([10]; large tumor cohort, 6 days): decreased in nearly all test animals
- Apoptosis (% CC3+) ([11]; BLZ945, Day 3): +17-fold
- Macrophages (% CD68+) ([11]; BLZ945, Day 3): +3-fold
- Total DAPI+ Cells ([11]; BLZ945, Day 3): −72%
- Tumor Cells (% Olig2+) ([11]; BLZ945, Day 3): −27%
- Apoptosis (% CC3+) ([11]; BLZ945, Day 7): +6-fold
- Macrophages (% CD68+) ([11]; BLZ945, Day 7): +2-fold
- Phagocytic Capacity ([11]; BLZ945, Day 7): +5.0-fold
- Total DAPI+ Cells ([11]; BLZ945, Day 7): −80%
- Tumor Cells (% Olig2+) ([11]; BLZ945, Day 7): −77%
- Vasculature (CD31 MVD) ([11]; BLZ945, Day 7): −17%
- Apoptosis (% CC3+) ([11]; BLZ945 Large, Day 3): +9-fold
- Macrophages (% CD68+) ([11]; BLZ945 Large, Day 3): +2-fold
- Phagocytic Capacity ([11]; BLZ945 Large, Day 3): +7.1-fold
- Total DAPI+ Cells ([11]; BLZ945 Large, Day 3): −40%
- Tumor Cells (% Olig2+) ([11]; BLZ945 Large, Day 3): −14%
- Apoptosis (% CC3+) ([11]; BLZ945 Large, Day 7): +2-fold
- Macrophages (% CD68+) ([11]; BLZ945 Large, Day 7): +4-fold
- Phagocytic Capacity ([11]; BLZ945 Large, Day 7): +6.0-fold
- Total DAPI+ Cells ([11]; BLZ945 Large, Day 7): −65%
- Tumor Cells (% Olig2+) ([11]; BLZ945 Large, Day 7): −73%
- Vasculature (CD31 MVD) ([11]; BLZ945 Large, Day 7): −67%
- level of apoptosis (CC3+) ([11]; earlier time point in particular): increase in apoptosis
- Olig2 (tumor cell density) ([11]; vs vehicle controls): significantly reduced

- IC50 [1]: 13.9 µM
- IC50 [2]: 0.006 µM
SMILES: CCNC(=O)c1cc(Oc2ccc3nc(N[C@@H]4CCCC[C@H]4O)sc3c2)ccn1 [Ig-B]

- IC50 [1]: 0.74 µM
- IC50 [2]: 0.0009 µM
SMILES: Cn1cc(-c2cc(Oc3ccc4nc(N[C@@H]5CCCC[C@H]5O)sc4c3)ccn2)cn1 [Ih-A]

- IC50 [1]: 1.5 µM
- IC50 [2]: 0.007 µM
SMILES: CCCn1cc(-c2cc(Oc3ccc4nc(N[C@@H]5CCCC[C@H]5O)sc4c3)ccn2)cn1 [Ih-C]

- IC50 [1]: 0.02 µM
- IC50 [2]: 0.001 µM
SMILES: Cn1cc(-c2cc(Oc3ccc4nc(N[C@H]5CCCC[C@@H]5O)sc4c3)ccn2)cn1 [Ih-D]
